# Results: patent publication US20030175270A1, “Methods of regulating cytokine receptor signaling” (priority 2002, published 2003)
# Tests used:
# JAK2 = JAK2 activation/phosphorylation in IL-3 stimulated BMMCs treated with Src inhibitor; type: cell-based, mouse
# Experimental: (§1) Murine BMMCs, splenic B cells, thymocytes, peritoneal macrophages and Jurkat T-cell lines were stimulated with various cytokines. For immunoprecipitations, lysates were incubated with antibodies conjugated with agarose or Sepharose beads for 2 h at 4° C. Total cell lysates or immunoprecipitates were separated using SDS-polyacrylamide gel electrophoresis, transferred onto membranes and immunoblotted. COS cells were transfected using diethylaminoethyl-dextron transfection technique with wild-type or PTPase-dead CD45 (D1:C828s) as described [McKenney et al., J. Biol. Chem. 270:24949-24954, 1995].
# For tyrosine phosphatase assays, immunoprecipitated Lyn, JAKs or STATs from lysates of 10^7 BMMCs (for Lyn, JAK1, JAK2, STAT3 and STAT5) or macrophages (for Tyk2) were washed in lysis buffer and phosphatase reaction buffer [Felberg et al., J. Biol. Chem. 273:17839-17845, 1998]. The amounts of Lyn and JAK2 in the immunoprecipitates used in FIG. 3A were 72 ng and 48 ng, respectively, as determined by silver staining. […] Tyrosine phosphorylation was monitored by immunoblotting with phosphotyrosine-specific antibodies. The extent of tyrosine phosphorylation and amount of substrates were determined by quantifying the intensities of the immunoblots with NIH Image 1.61 software. […]
# STAT3 = STAT3 Tyr 705 phosphorylation in IL-3 stimulated BMMCs treated with Src inhibitor; type: cell-based, mouse; details: IL-3 stimulated cd45+/+ or cd45-/- BMMCs
# Experimental: as §1
# (§2) Experiments were designed in order to assess whether Src kinases, known substrates of CD45, were deregulated during hyperactivation of the JAK-STAT pathway in cd45^−/− BMMCs. […] In addition, in IL-3 stimulated cd45^+/+ or cd45 ^−/− BMMCs, treatment with PP2 had no effect on the increased phosphorylation of the specific residues Tyr 1007 and TYR1008 in JAK2, Tyr 705 in STAT3, and Tyr 1022 and Tyr 1023 in JAK1 (see FIG. 2).
# JAK1 = JAK1 Tyr 1022/Tyr 1023 phosphorylation in IL-3 stimulated BMMCs treated with Src inhibitor; type: cell-based, mouse; details: IL-3 stimulated cd45+/+ or cd45-/- BMMCs
# Experimental: as §1, §2
# rCD45 = biological target: T1, rCD45 (Homo sapiens, UniProt P08575); assay: inhibition of rCD45-mediated JAK2 dephosphorylation; type: biochemical; details: 0.1 mM Na3 VO4, 10 U rCD45
# T1 construct: The rCD45 employed contained the intracellular dual PTPase domains with a relative molecular mas of 97,000 (Mr 97K); purchased Calbiochem
# T1 sequence (P08575 599-1306 limits assumed): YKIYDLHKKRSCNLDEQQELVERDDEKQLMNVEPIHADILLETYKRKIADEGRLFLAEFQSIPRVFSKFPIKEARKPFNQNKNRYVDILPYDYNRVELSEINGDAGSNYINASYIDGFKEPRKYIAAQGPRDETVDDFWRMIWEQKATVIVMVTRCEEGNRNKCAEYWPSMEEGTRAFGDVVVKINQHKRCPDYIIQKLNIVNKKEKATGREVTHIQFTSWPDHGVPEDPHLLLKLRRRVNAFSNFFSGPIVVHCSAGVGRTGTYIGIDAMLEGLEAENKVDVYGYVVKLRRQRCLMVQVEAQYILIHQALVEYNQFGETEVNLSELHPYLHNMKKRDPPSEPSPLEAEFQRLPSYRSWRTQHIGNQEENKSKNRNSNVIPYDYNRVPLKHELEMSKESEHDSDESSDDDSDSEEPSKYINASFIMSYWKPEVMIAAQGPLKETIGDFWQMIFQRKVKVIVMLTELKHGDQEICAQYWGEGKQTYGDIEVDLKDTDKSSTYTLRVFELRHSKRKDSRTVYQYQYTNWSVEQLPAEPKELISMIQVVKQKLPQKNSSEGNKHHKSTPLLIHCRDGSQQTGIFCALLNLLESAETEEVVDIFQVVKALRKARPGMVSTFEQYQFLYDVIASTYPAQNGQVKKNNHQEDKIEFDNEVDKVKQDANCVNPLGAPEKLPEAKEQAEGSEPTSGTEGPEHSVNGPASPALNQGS
# Experimental: For tyrosine phosphatase assays, immunoprecipitated Lyn, JAKs or STATs from lysates of 10^7 BMMCs (for Lyn, JAK1, JAK2, STAT3 and STAT5) or macrophages (for Tyk2) were washed in lysis buffer and phosphatase reaction buffer [Felberg et al., J. Biol. Chem. 273:17839-17845, 1998]. The amounts of Lyn and JAK2 in the immunoprecipitates used in FIG. 3A were 72 ng and 48 ng, respectively, as determined by silver staining. Recombinant CD45 was added to substrates in the presence or absence of 0.1 mM Na3 VO4 followed by incubation at 30° C. for 20 min. Tyrosine phosphorylation was monitored by immunoblotting with phosphotyrosine-specific antibodies. The extent of tyrosine phosphorylation and amount of substrates were determined by quantifying the intensities of the immunoblots with NIH Image 1.61 software. Kinase activity in anti-Lyn or anti-JAK immunoprecipitates was assessed by an in vitro kinase assay with Raytide (Oncogen Science) as a substrate or using authophosphorylation [Lui et al., Genes Dev. 13:786-791, 1999]. In vitro binding assays were performed as described [Felberg et al., J. Biol. Chem. 273:17839-17845, 1998], using 1 μg of soluble GST, GST-CD45-D2, or GST-PTPase-dead CD45 (D1:C828S). EMSAs were as described [Charurvedi et al., Mol. Cell. Biol. 17:3295-3304, 1997]. The sequences of the EMSA probes were: STAT3, 5′-[…]-3′ (SEQ ID NO: 1); STAT3 mutant, 5′-[…]-3′ (SEQ ID NO: 2). […]
# Coxsackievirus B3 (CVB3) = assay: CVB3 replication in Jurkat cells, plaque-forming assay; type: cell-based, human; details: IFN-α 1,000 units/ml pretreatment 4 h; cd45-deficient vs parental Jurkat cells
# Experimental: For Coxsackievirus infections in vitro, Jurkat cells were pretreated with IFN-α (1,000 units ml−^1) for 4 h and inoculated in triplicate with 3×10^5 CVB3 for 1 h at 37° C. Cells were then washed to remove excess IFN-α and excess CBV3 virus, and resuspended in RPMI medium containing 10% FBS. After 24 h, culture supernatants were analyzed for the presence of infectious CVB3 by using plaque-forming assays in HeLa cell monolayers. For CVB3 infections in vivo , the cd45mutation was backcrossed onto an A/J (H2^k/k ) background for five generations. A/J (H2^k/k) mice are highly susceptible to acute and chronic CVB3 infections. Four-week-old mice were inoculated intraperitoneally with 10^5 plaque-forming units of CVB3. For lethality scores, cd45−^/− (n=25) and cd45^± (n=22) littermate mice were monitored daily after infection. […] At defined time points, mice were sacrificed and organs were processed for histology. Sections from eight mice per group were stained with haematoxylin/eosin and Masson blue. In all experiments, the CVB3 strain Gauntt-Chow was used.
# IFN-α and IFN-α R-regulated signaling are critical for replication of the picomavirus Coxsackievirus B3 (CVB3) in vitro and CVB3 infections in vivo [Kandolf et al., J. Mol. Cell. Cardiol. 17:167-181, 1985]. […] CVB3 titres were measured after infection of parental or cd45-deficient Jurkat cell lines. […]
compound,measurement,setting,value
CC(C)(C)n1nc(-c2ccc(Cl)cc2)c2c(N)ncnc21 [PP2],increased phosphorylation of Tyr 1007 and Tyr 1008 in JAK2,JAK2; IL-3 stimulated cd45+/+ or cd45-/- BMMCs,no effect
same,JAK2 activation,"JAK2; cd45+/+ and cd45-/- BMMCs, addition of the inhibitor",unaffected
same,increased phosphorylation of Tyr 705 in STAT3,STAT3,no effect
same,increased phosphorylation of Tyr 1022 and Tyr 1023 in JAK1,JAK1,no effect
"[Na+].[Na+].[Na+].[O]=[V]([O-])([O-])[O-] [vanadate, Na3 VO4]",effect on rCD45-mediated JAK2 dephosphorylation,rCD45,inhibits
same,effect on rCD45-mediated JAK2 dephosphorylation,rCD45; listed as mandate,blocked JAK2 dephosphorylation
IFN-α,suppression of CVB3 viral amplification,Coxsackievirus B3 (CVB3),suppressed viral amplification more efficiently in cd45-deficient cells than in parental Jurkat cells
